Experimental data published in patent US10001472B2, “3D determination of cell chirality” (Rensselaer Polytechnic Institute, priority 2015, dated 2018).

Tested on: Madin-Darby canine kidney (MDCK) epithelial cells
Test: 3D cell chirality (rotation direction) of cells in bilayer MATRIGEL substrate
Assay type: cell-based
Settings: MDCK cells in 3D substrate, FIG. 5
Protocol: The cell line used was Madin-Darby canine kidney (MDCK) epithelial cells. The 3D substrate culture system included a base layer was composed of 100% MATRIGEL®. The base layer was seeded with a single cell suspension of MDCK epithelial cells. After cell attachments to the base layer, a top layer was generated by overlaying culture with 2% MATRIGEL®.
Self-organization of the epithelial cells during microtissue development was observed using phase contrast imaging and confocal microscopy. The cells were stained with DAPI (4′,6-diamidino-2-phenylindole), Phalloidin, and ZO-1 antibody.
Time-lapse images were collected for at least 2 hours at intervals of 1 minute over a period of 6 days. Videos were processed in ImageJ and analyzed for quantification of collective rotational direction. Direction of rotation was categorized into clockwise (CW), counterclockwise (CCW), complex rotation, and no rotation. Phase-contrast images of microtissue development from a single cell embedded within the multilayer MATRIGEL® system over time.
Latrunculin A was used to study the role of actin function in left right asymmetry. Latrunculin A is a drug which inhibits actin polymerization. […] These studies are consistent with 2D studies.

SMILES: C/C1=C/C(=O)O[C@@H]2C[C@@H](CC[C@H](C)/C=C\C=C\CC1)O[C@@](O)([C@@H]1CSC(=O)N1)C2 [Latrunculin A]
- effect on cell chirality (rotation direction) (base layer 100% MATRIGEL, top layer 2% MATRIGEL): reversal of chirality
- concentration dependence of chirality effect (higher concentrations of Latrunculin A): increasing clockwise chirality
